# How the values were obtained:
# [1] = system: early erythroid cells (Eryth I); assay: MLTA, ErythI: concentration-response and QSP model fit; type: cell-based, human; conditions: Homo sapiens, 144 h
# Procedure, shortened: (§1)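 Freeze-thawed primary human bone marrow CD34+ cells were grown in SFEM II with a multi-lineage cytokine cocktail, drug added day 0, six days at 37°C. Lineage counts came from 17-parameter flow with TruCount beads, vehicle-normalized per donor, then fitted by an Emax-based QSP model.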
# [2] = system: multi-potent progenitors (MPPs); assay: MLTA, MPPs: concentration-response and QSP model fit; type: cell-based, human; conditions: Homo sapiens, 144 h
# Procedure, shortened: (§2)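 Parameters come from fitting an Emax-based QSP model, with L1 regularization and Emax ranging 0–2, to vehicle-normalized, bead-corrected flow cytometry counts. Counts came from human bone marrow CD34+ cells treated from day 0 through a 6-day multi-lineage cytokine culture in SFEM II, using 2–7 donors per drug.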
# B cells (B-lin) = assay: MLTA, B-lin: concentration-response and QSP model fit; type: cell-based, human; conditions: Homo sapiens, B-cell, 144 h
# Procedure, shortened: as §2
# monocytes (monocyte-lin) = assay: MLTA, Mono: concentration-response and QSP model fit; type: cell-based, human; conditions: Homo sapiens, Monocyte, 144 h
# Procedure, shortened: as §1
# [3] = system: late erythroid cells (Eryth II); assay: MLTA, ErythII: concentration-response and QSP model fit; type: cell-based, human; conditions: Homo sapiens, 144 h
# Procedure, shortened: as §2
# [4] = system: total dead cells (totalDeadCells); assay: MLTA, total dead cells concentration-response; type: cell-based; conditions: Homo sapiens, 144 h, 6 days, normalized to vehicle control, read-out: total_dead normalized cell count
# Procedure, shortened: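 Freeze-thawed primary human bone marrow CD34+ cells in SFEM II with cytokine cocktail, drug added day 0, 6 days at 37°C, 5% CO2. Live/dead counts by 17-parameter flow cytometry with DAPI exclusion, bead-normalized, volume-corrected to cells/mL. Normalized per donor to mean of six vehicle wells; 2–7 donors pooled.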
# [5] = system: hematopoietic stem cells (HSCs); assay: Multi-lineage toxicity assay (MLTA), HSCs: concentration-response and QSP model fit; type: cell-based, human; set-up: EmaxAP,HSC / EmaxT,HSC / Emax_drug_HSC: unitless, 0–2; ≤1 anti-proliferative, >1 adds cell killing
# Procedure, shortened: as §2
# [6] = system: monocyte progenitors (monocyte prog); assay: MLTA, MonoP: concentration-response and QSP model fit; type: cell-based, human; conditions: Homo sapiens, Monocyte, 144 h
# Procedure, shortened: as §1
# [7] = QSP model fit of 6-day MLTA data
smiles,measurement,setting,value
CC(=O)c1c(C)c2cnc(Nc3ccc(N4CCNCC4)cn3)nc2n(C2CCCC2)c1=O [palbociclib],activity at 0.0002 µM,"[1]; dose 0.2 nM, 6 days, normalized to vehicle control, read-out: ErythI normalized cell count",104%
same,activity at 0.001 µM,"[1]; dose 1 nM, 6 days, normalized to vehicle control, read-out: ErythI normalized cell count",109%
same,activity at 0.005 µM,"[1]; dose 5 nM, 6 days, normalized to vehicle control, read-out: ErythI normalized cell count",96.4%
same,activity at 0.025 µM,"[1]; dose 25 nM, 6 days, normalized to vehicle control, read-out: ErythI normalized cell count",72.1%
same,activity at 0.1 µM,"[1]; dose 100 nM, 6 days, normalized to vehicle control, read-out: ErythI normalized cell count",35.1%
same,activity at 0.5 µM,"[1]; dose 500 nM, 6 days, normalized to vehicle control, read-out: ErythI normalized cell count",9.41%
same,activity at 2.5 µM,"[1]; dose 2500 nM, 6 days, normalized to vehicle control, read-out: ErythI normalized cell count",2.34%
same,Emax,"[1]; parameter from QSP model fitting, read-out: Emax_drug_ErythroidI",0.04%
same,activity at 0.0002 µM,"[2]; dose 0.2 nM, 6 days, normalized to vehicle control, read-out: MPPs normalized cell count",86.4%
same,activity at 0.001 µM,"[2]; dose 1 nM, 6 days, normalized to vehicle control, read-out: MPPs normalized cell count",88.4%
same,activity at 0.005 µM,"[2]; dose 5 nM, 6 days, normalized to vehicle control, read-out: MPPs normalized cell count",77.3%
same,activity at 0.025 µM,"[2]; dose 25 nM, 6 days, normalized to vehicle control, read-out: MPPs normalized cell count",45.6%
same,activity at 0.1 µM,"[2]; dose 100 nM, 6 days, normalized to vehicle control, read-out: MPPs normalized cell count",23.3%
same,activity at 0.5 µM,"[2]; dose 500 nM, 6 days, normalized to vehicle control, read-out: MPPs normalized cell count",11%
same,activity at 2.5 µM,"[2]; dose 2500 nM, 6 days, normalized to vehicle control, read-out: MPPs normalized cell count",5.77%
same,Emax,"[2]; parameter from QSP model fitting, read-out: Emax_drug_MPP",0.0264%
same,EC50,B cells (B-lin); [7],0.0906 µM
same,activity at 0.0002 µM,"B cells (B-lin); dose 0.2 nM, 6 days, normalized to vehicle control, read-out: B-lin normalized cell count",93.4%
same,activity at 0.001 µM,"B cells (B-lin); dose 1 nM, 6 days, normalized to vehicle control, read-out: B-lin normalized cell count",106%
same,activity at 0.005 µM,"B cells (B-lin); dose 5 nM, 6 days, normalized to vehicle control, read-out: B-lin normalized cell count",76.6%
same,activity at 0.025 µM,"B cells (B-lin); dose 25 nM, 6 days, normalized to vehicle control, read-out: B-lin normalized cell count",67.3%
same,activity at 0.1 µM,"B cells (B-lin); dose 100 nM, 6 days, normalized to vehicle control, read-out: B-lin normalized cell count",41.4%
same,activity at 0.5 µM,"B cells (B-lin); dose 500 nM, 6 days, normalized to vehicle control, read-out: B-lin normalized cell count",13.8%
same,activity at 2.5 µM,"B cells (B-lin); dose 2500 nM, 6 days, normalized to vehicle control, read-out: B-lin normalized cell count",8.85%
same,Emax,"B cells (B-lin); parameter from QSP model fitting, read-out: Emax_drug_B",49.9%
same,EC50,monocytes (monocyte-lin); [7],0.0393 µM
same,activity at 0.0002 µM,"monocytes (monocyte-lin); dose 0.2 nM, 6 days, normalized to vehicle control, read-out: Mon normalized cell count",90%
same,activity at 0.001 µM,"monocytes (monocyte-lin); dose 1 nM, 6 days, normalized to vehicle control, read-out: Mon normalized cell count",106%
same,activity at 0.005 µM,"monocytes (monocyte-lin); dose 5 nM, 6 days, normalized to vehicle control, read-out: Mon normalized cell count",89.9%
same,activity at 0.025 µM,"monocytes (monocyte-lin); dose 25 nM, 6 days, normalized to vehicle control, read-out: Mon normalized cell count",58.8%
same,activity at 0.1 µM,"monocytes (monocyte-lin); dose 100 nM, 6 days, normalized to vehicle control, read-out: Mon normalized cell count",25.6%
same,activity at 0.5 µM,"monocytes (monocyte-lin); dose 500 nM, 6 days, normalized to vehicle control, read-out: Mon normalized cell count",13.2%
same,activity at 2.5 µM,"monocytes (monocyte-lin); dose 2500 nM, 6 days, normalized to vehicle control, read-out: Mon normalized cell count",23.9%
same,Emax,"monocytes (monocyte-lin); parameter from QSP model fitting, read-out: Emax_drug_Mono",14.2%
same,EC50,"[3]; QSP model fit of 6-day MLTA data, read-out: EC50ErythII",0.0995 µM
same,activity at 0.0002 µM,"[3]; dose 0.2 nM, 6 days, normalized to vehicle control, read-out: ErythII normalized cell count",89%
same,activity at 0.001 µM,"[3]; dose 1 nM, 6 days, normalized to vehicle control, read-out: ErythII normalized cell count",103%
same,activity at 0.005 µM,"[3]; dose 5 nM, 6 days, normalized to vehicle control, read-out: ErythII normalized cell count",99.1%
same,activity at 0.025 µM,"[3]; dose 25 nM, 6 days, normalized to vehicle control, read-out: ErythII normalized cell count",82.3%
same,activity at 0.1 µM,"[3]; dose 100 nM, 6 days, normalized to vehicle control, read-out: ErythII normalized cell count",56.9%
same,activity at 0.5 µM,"[3]; dose 500 nM, 6 days, normalized to vehicle control, read-out: ErythII normalized cell count",30.3%
same,activity at 2.5 µM,"[3]; dose 2500 nM, 6 days, normalized to vehicle control, read-out: ErythII normalized cell count",14.3%
same,Emax,"[3]; parameter from QSP model fitting, read-out: Emax_drug_ErythroidII",11.8%
same,activity at 0.0002 µM,[4]; dose 0.2 nM,101%
same,activity at 0.001 µM,[4]; dose 1 nM,102%
same,activity at 0.005 µM,[4]; dose 5 nM,103%
same,activity at 0.025 µM,[4]; dose 25 nM,64.6%
same,activity at 0.1 µM,[4]; dose 100 nM,40.5%
same,activity at 0.5 µM,[4]; dose 500 nM,28.9%
same,activity at 2.5 µM,[4]; dose 2500 nM,22.7%
same,EC50,"[5]; Homo sapiens, Hematopoietic stem cell, 144 h, QSP model fit of 6-day MLTA data",0.166 µM
same,activity at 0.0002 µM,"[5]; Homo sapiens, Hematopoietic stem cell, 144 h, dose 0.2 nM, 6 days, normalized to vehicle control, read-out: HSCs normalized cell count",89.4%
same,activity at 0.001 µM,"[5]; Homo sapiens, Hematopoietic stem cell, 144 h, dose 1 nM, 6 days, normalized to vehicle control, read-out: HSCs normalized cell count",92%
same,activity at 0.005 µM,"[5]; Homo sapiens, Hematopoietic stem cell, 144 h, dose 5 nM, 6 days, normalized to vehicle control, read-out: HSCs normalized cell count",98.5%
same,activity at 0.025 µM,"[5]; Homo sapiens, Hematopoietic stem cell, 144 h, dose 25 nM, 6 days, normalized to vehicle control, read-out: HSCs normalized cell count",83.4%
same,activity at 0.1 µM,"[5]; Homo sapiens, Hematopoietic stem cell, 144 h, dose 100 nM, 6 days, normalized to vehicle control, read-out: HSCs normalized cell count",48.9%
same,activity at 0.5 µM,"[5]; Homo sapiens, Hematopoietic stem cell, 144 h, dose 500 nM, 6 days, normalized to vehicle control, read-out: HSCs normalized cell count",25%
same,activity at 2.5 µM,"[5]; Homo sapiens, Hematopoietic stem cell, 144 h, dose 2500 nM, 6 days, normalized to vehicle control, read-out: HSCs normalized cell count",9.86%
same,Emax,"[5]; Homo sapiens, Hematopoietic stem cell, 144 h, parameter from QSP model fitting, read-out: Emax_drug_HSC",77.6%
same,"EmaxAP,HSC","[5]; anti-proliferation component, min(1, EmaxT)",0.776
same,activity at 0.0002 µM,"[6]; dose 0.2 nM, 6 days, normalized to vehicle control, read-out: MonoPs normalized cell count",101%
same,activity at 0.001 µM,"[6]; dose 1 nM, 6 days, normalized to vehicle control, read-out: MonoPs normalized cell count",92.3%
same,activity at 0.005 µM,"[6]; dose 5 nM, 6 days, normalized to vehicle control, read-out: MonoPs normalized cell count",97.3%
same,activity at 0.025 µM,"[6]; dose 25 nM, 6 days, normalized to vehicle control, read-out: MonoPs normalized cell count",44.4%
same,activity at 0.1 µM,"[6]; dose 100 nM, 6 days, normalized to vehicle control, read-out: MonoPs normalized cell count",14.1%
same,activity at 0.5 µM,"[6]; dose 500 nM, 6 days, normalized to vehicle control, read-out: MonoPs normalized cell count",4.6%
same,activity at 2.5 µM,"[6]; dose 2500 nM, 6 days, normalized to vehicle control, read-out: MonoPs normalized cell count",0.787%
same,Emax,"[6]; parameter from QSP model fitting, read-out: Emax_drug_MonoP",0.0351%

# Reference: PMC7402526, “An in vitro quantitative systems pharmacology approach for deconvolving mechanisms of drug-induced, multilineage cytopenias” (PLoS Computational Biology, 2020)
